± gives the standard deviation of the averaged measurements.
Tests used:
Assay in all cases: LOEC (log10 uM (lowest observed effect concentration))
[1] = compound: C[N+](C)(C)CCCNS(=O)(=O)C(F)(F)C(F)(F)C(F)(F)C(F)(F)C(F)(F)C(F)(F)C(F)(F)C(F)(F)F [Perfluorooctanesulfonamido ammonium iodide]
Method: (§1)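 BioMAP Diversity Plus panel in human primary cell co-cultures, 4 concentrations in duplicate blinded samples. Responses are log10 fold change versus DMSO control, processed with tcpl v2.1.0. A hit is called when responses at any concentration exceed the cutoff (the larger of 3*bmad or log10(1.2)); the lowest observed effect concentration (modl_ga, log10 uM) is reported for hits.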

[2] = compound: C=CC(=O)OCC(F)(F)C(F)(F)C(F)(F)C(F)(F)C(F)(F)C(F)(F)C(F)(F)F [1H,1H-Perfluorooctyl acrylate]
Method: as §1

[3] = compound: CCN(CCO)S(=O)(=O)C(F)(F)C(F)(F)C(F)(F)C(F)(F)C(F)(F)C(F)(F)C(F)(F)C(F)(F)F [N-Ethyl-N-(2-hydroxyethyl)perfluorooctanesulfonamide]
Method: as §1

[4] = compound: OCCC(F)(F)C(F)(F)C(F)(F)C(F)(F)C(F)(F)C(F)(F)F [6:2 Fluorotelomer alcohol]
Method: as §1

[5] = compound: FC(F)(F)C(F)(F)C(F)(F)C(F)(F)C(F)(F)CCI [1-Iodo-1H,1H,2H,2H-perfluoroheptane]
Method: as §1

[6] = compound: OCCCC(F)(F)C(F)(F)C(F)(F)C(F)(F)C(F)(F)C(F)(F)C(F)(F)F [7:3 Fluorotelomer alcohol]
Method: as §1

Perfluorodecanoic acid = compound: O=C(O)C(F)(F)C(F)(F)C(F)(F)C(F)(F)C(F)(F)C(F)(F)C(F)(F)C(F)(F)C(F)(F)F [Perfluorodecanoic acid]
Method: as §1

[7] = compound: O=C(O)C(F)(F)C(F)(F)C(F)(F)C(F)(F)C(F)(F)C(F)(F)C(F)(F)C(F)F [9-H-Perfluorononanoic acid]
Method: as §1

[8] = compound: O=S(=O)(O)C(F)(F)C(F)(F)C(F)(F)C(F)(F)C(F)(F)C(F)(F)F [Perfluorohexanesulfonic acid]
Method: as §1

[9] = compound: OCC(F)(F)OC(F)(F)C(F)(F)OC(F)(F)CO [1H,1H,8H,8H-Perfluoro-3,6-dioxaoctane-1,8-diol]
Method: as §1

[10] = compound: O=C(O)C(F)(F)C(F)(F)C(F)(F)OC(F)(C(F)(F)F)C(F)(F)F [Perfluoro-4-isopropoxybutanoic acid]
Method: as §1

Perfluoroheptanoic acid = compound: O=C(O)C(F)(F)C(F)(F)C(F)(F)C(F)(F)C(F)(F)C(F)(F)F [Perfluoroheptanoic acid]
Method: as §1

[11] = compound: O=C(O)C(F)(F)OC(F)(F)C(F)(F)OC(F)(F)F [Perfluoro-3,6-dioxaheptanoic acid]
Method: as §1

Perfluoro-1-iodohexane = compound: FC(F)(F)C(F)(F)C(F)(F)C(F)(F)C(F)(F)C(F)(F)I [Perfluoro-1-iodohexane]
Method: as §1

| Test System | LOEC (log10 uM) [1] | LOEC (log10 uM) [3] | LOEC (log10 uM) [6] | LOEC (log10 uM) (Perfluorodecanoic acid) | LOEC (log10 uM) [7] | further results |
| --- | --- | --- | --- | --- | --- | --- |
| 3C Proliferation down | 1.78 | 0.573 ± 0.39 | 1.07 ± 0.32 | 1.78 |  | LOEC (log10 uM) [2]: 1.78; LOEC (log10 uM) [4]: 1.78; LOEC (log10 uM) [5]: 1.78 |
| 4H Pselectin up |  |  |  |  | 1.78 |  |
| BE3C HLADR down | 1.78 | 1.3 | 1.78 | 1.3 | 1.07 ± 0.32 |  |
| BE3C IP10 down | 1.78 | 1.3 | 1.78 | 0.845 | 1.78 |  |
| BE3C MMP1 up | 1.78 | 0.845 |  |  | 1.78 | LOEC (log10 uM) [5]: 1.54 ± 0.34; LOEC (log10 uM) [8]: 1.78 |
| BF4T Eotaxin3 down |  |  | 1.31 ± 0.66 | 1.3 | 0.845 | LOEC (log10 uM) [5]: 1.78 |
| BF4T ICAM1 down |  |  | 1.78 | 1.3 | 1.07 ± 0.32 |  |
| BF4T MCP1 down |  |  | 1.54 ± 0.34 | 1.3 | 0.573 ± 0.39 |  |
| BF4T PAI1 down |  |  | 1.78 | 1.3 | 0.845 |  |
| BF4T tPA down | 1.3 |  | 1.78 | 1.3 | 1.07 ± 0.32 |  |
| BT Bcell Proliferation up |  |  |  | 1.78 | 1.78 |  |
| BT PBMCCytotoxicity up |  |  |  |  | 1.78 |  |
| BT xIL17F down | 1.3 | 1.3 | 1.3 |  |  | LOEC (log10 uM) [2]: 1.3 |
| CASM3C Proliferation down |  | 1.3 | 1.3 |  |  | LOEC (log10 uM) [5]: 1.54 ± 0.34 |
| IMphg CD40 down | 1.54 ± 0.34 |  | 1.78 | 1.78 |  | LOEC (log10 uM) [9]: 1.3 |
| IMphg IL8 up |  | 1.78 |  |  | 1.78 | LOEC (log10 uM) [10]: 1.78; LOEC (log10 uM) (Perfluoroheptanoic acid): 1.78; LOEC (log10 uM) [11]: 1.78 |
| IMphg IL10 down | 1.3 |  |  | 1.78 | 1.78 | LOEC (log10 uM) [8]: 1.78 |
| LPS IL8 up |  |  |  |  | 1.54 ± 0.34 | LOEC (log10 uM) [10]: 1.54 ± 0.34 |

| Test System | LOEC (log10 uM) [1] | LOEC (log10 uM) [3] | LOEC (log10 uM) [6] | LOEC (log10 uM) (Perfluorodecanoic acid) | LOEC (log10 uM) [7] | further results |
| --- | --- | --- | --- | --- | --- | --- |
| MyoF ACTA1 down | 1.3 | 1.3 | 1.78 | 1.78 |  | LOEC (log10 uM) (Perfluoro-1-iodohexane): 1.3 |
| MyoF CollagenI down | 1.78 | 1.3 | 1.78 | 1.3 |  | LOEC (log10 uM) (Perfluoro-1-iodohexane): 1.78 |
| MyoF CollagenIII down | 1.78 | 1.3 | 1.78 | 1.3 |  | LOEC (log10 uM) (Perfluoro-1-iodohexane): 1.78 |
| MyoF MMP1 up | 1.78 | 1.3 |  |  |  | LOEC (log10 uM) (Perfluoro-1-iodohexane): 1.3 |
| MyoF PAI1 down | 1.78 |  | 1.78 | 1.78 |  | LOEC (log10 uM) (Perfluoro-1-iodohexane): 1.78 |
| MyoF SRB down | 1.78 | 1.3 | 1.78 | 1.54 ± 0.34 |  | LOEC (log10 uM) (Perfluoro-1-iodohexane): 1.3 |
| MyoF VCAM1 down | 1.78 | 1.3 | 1.78 | 1.54 ± 0.34 |  | LOEC (log10 uM) (Perfluoro-1-iodohexane): 1.54 ± 0.34 |
| hDFCGF IP10 down | 1.78 | 1.07 ± 0.32 | 1.3 | 1.07 ± 0.32 |  | LOEC (log10 uM) [5]: 1.78 |
| hDFCGF ITAC down | 1.78 | 1.07 ± 0.32 | 1.3 | 1.3 | 1.54 ± 0.34 | LOEC (log10 uM) [4]: 1.78; LOEC (log10 uM) [5]: 1.78 |
| hDFCGF MCP1 down | 1.78 | 1.3 | 1.3 | 1.78 |  | LOEC (log10 uM) [4]: 1.78 |
| hDFCGF MCSF down |  | 1.07 ± 0.32 | 1.3 | 1.3 |  | LOEC (log10 uM) [5]: 1.78 |
| hDFCGF MMP1 down |  | 1.78 | 1.3 | 1.3 | 1.3 |  |
| hDFCGF PAI1 down | 1.78 | 1.54 ± 0.34 | 1.3 | 1.54 ± 0.34 |  | LOEC (log10 uM) [4]: 1.78 |
| hDFCGF Proliferation down |  | 0.573 ± 0.39 | 0.845 | 1.3 |  | LOEC (log10 uM) [2]: 1.78; LOEC (log10 uM) [4]: 1.78; LOEC (log10 uM) [5]: 1.3 |
| hDFCGF SRB down | 1.78 | 0.573 ± 0.39 | 1.3 | 1.78 |  | LOEC (log10 uM) [4]: 1.78 |
| hDFCGF SRB up |  |  |  |  | 1.54 ± 0.34 |  |
| hDFCGF VCAM1 down | 1.78 | 1.54 ± 0.34 | 1.3 | 0.801 ± 0.71 |  | LOEC (log10 uM) [4]: 1.78; LOEC (log10 uM) [5]: 1.78 |

Source: the supplement of paper PMC10331698
